From PubChem BioAssay (NCI)
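Five compound concentrations were applied to cells in 96-well plates for 48 hours; endpoints were derived by simple linear interpolation of the resulting dose-response curve. Here, GI50 denotes the concentration required for 50% inhibition of growth. TGI marks complete inhibition of growth.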

Assays:
Test in all cases: NCI-60 cell line screen, 48 h
SK-OV-3 ovarian = system: SK-OV-3 ovarian
EKVX NSCLC = system: EKVX NSCLC
HT29 colon = system: HT29 colon
UACC-257 melanoma = system: UACC-257 melanoma
K-562 leukemia = system: K-562 leukemia
SK-MEL-28 melanoma = system: SK-MEL-28 melanoma
TK-10 renal = system: TK-10 renal
OVCAR-5 ovarian = system: OVCAR-5 ovarian
HL-60(TB) leukemia = system: HL-60(TB) leukemia
NCI-H226 lung = system: NCI-H226 lung

SMILES | TGI (SK-OV-3 ovarian) [µM] | TGI (EKVX NSCLC) [µM] | TGI (HT29 colon) [µM] | TGI (UACC-257 melanoma) [µM] | TGI (K-562 leukemia) [µM] | TGI (SK-MEL-28 melanoma) [µM] | TGI (TK-10 renal) [µM] | TGI (OVCAR-5 ovarian) [µM] | TGI (HL-60(TB) leukemia) [µM] | GI50 (SK-OV-3 ovarian) [µM] | GI50 (EKVX NSCLC) [µM] | GI50 (NCI-H226 lung) [µM] | TGI (NCI-H226 lung) [µM] | GI50 (SK-MEL-28 melanoma) [µM] | GI50 (TK-10 renal) [µM] | GI50 (HL-60(TB) leukemia) [µM] | GI50 (UACC-257 melanoma) [µM] | GI50 (K-562 leukemia) [µM] | GI50 (OVCAR-5 ovarian) [µM]
C/C(Cl)=N\OC(=O)Nc1ccc(C)cc1 | 31.1 | 32.3 | 41.6 | 32.9 | > 100 | 28.1 | 28.5 | 32.6 | – | – | – | – | – | – | – | – | – | – | –
CC(=O)OCC1OC(n2c(-c3ccccc3)c(N=Nc3ccccc3)c(C)c(C#N)c2=S)C(OC(C)=O)C(OC(C)=O)C1OC(C)=O (stereo unspecified) | > 100 | – | > 100 | > 100 | > 100 | > 100 | > 100 | > 100 | > 100 | – | – | – | – | – | – | – | – | – | –
CCc1c(CNc2ccc(C(=O)NC(CC(=O)O)C(=O)O)cc2)ccc2nc(N)nc(N)c12 (stereo unspecified) | > 1000 | > 1000 | > 1000 | – | > 1000 | > 1000 | > 1000 | > 1000 | – | > 1000 | 558 | > 1000 | > 1000 | > 1000 | > 1000 | – | – | – | –
COc1cc(-c2n/c(=C\c3c(O)[nH]c4ccc(Cl)cc34)cc3c2=Nc2ccccc2-3)ccc1F | 5.3 | 27.2 | – | 10.9 | 5.98 | 5.02 | 4.43 | 13.3 | 34.7 | 2.29 | 4.12 | 2.19 | 8.15 | 2.27 | 2.51 | 10.9 | 3.43 | 2.22 | 3.9
O=P(O)(O)c1ccccc1Oc1ccccc1 | > 100 | > 100 | – | > 100 | > 100 | > 100 | > 100 | > 100 | > 100 | – | – | – | > 100 | – | – | – | – | – | –
COc1cccc2c1C(=O)c1c(O)c3c(c(O)c1C2=O)C[C@H](O)C[C@@H]3OC1CC(N)C(O)C(C)O1 (stereo partly specified) | 14.8 | 20.8 | 14.1 | 5.15 | 10.1 | 9.13 | 7.15 | 11.8 | – | – | – | – | 2.81 | – | – | – | – | – | –
Cn1c(=O)c(-c2ccccc2)c(O)c2ccccc21 | – | > 100 | > 100 | > 100 | > 100 | > 100 | > 100 | > 100 | > 100 | – | – | – | > 100 | – | – | – | – | – | –
O=C(/C=C/C(=O)N1CCCC1)N1CCCC1 | > 100 | > 100 | > 100 | > 100 | > 100 | > 100 | > 100 | > 100 | > 100 | – | – | – | – | – | – | – | – | – | –
CO[C@H]1SC[C@H](OC(C)=O)[C@H](OC(C)=O)[C@H]1OC(C)=O | – | > 100 | > 100 | > 100 | > 100 | > 100 | > 100 | – | > 100 | – | – | – | > 100 | – | – | – | – | – | –
COc1ccc(/C=c2\s/c(=C3/SC(=S)N(c4ccccc4)C3=O)n(-c3ccccc3)c2=O)cc1 | 45 | > 100 | > 100 | – | > 100 | > 100 | 59.2 | > 100 | > 100 | – | – | – | – | – | – | – | – | – | –
CCC(O)(Cc1ccc(OC)cc1)c1ccc(OC)cc1 (stereo unspecified) | > 100 | > 100 | > 100 | > 100 | > 100 | – | > 100 | > 100 | > 100 | – | – | – | > 100 | – | – | – | – | – | –
CCOC(=O)C1(C#N)C(c2ccccc2)CC(O)(c2ccc(Cl)cc2)C(C(=O)c2ccc(Cl)cc2)C1c1ccccc1 (stereo unspecified) | > 100 | > 100 | > 100 | > 100 | – | > 100 | > 100 | > 100 | > 100 | – | – | – | > 100 | – | – | – | – | – | –
CCCCC1=C(C(=O)N2CCOCC2)C2(OCCO2)C1=O | > 100 | > 100 | 45.1 | 89.9 | – | 94.8 | > 100 | 46.8 | 61.2 | – | – | – | 20.5 | – | – | – | – | – | –
Cc1c(CN2CCN(C)CC2)c(CN2CCN(C)CC2)c(C)n1-c1ccc(Cl)cc1 | > 100 | > 100 | 42.7 | 29.1 | > 100 | 39.2 | 47.8 | > 100 | – | – | – | – | > 100 | – | – | – | – | – | –
COc1ccc(Nc2nc(N)c(C(=O)c3c[nH]c4ccccc34)s2)cc1 | > 100 | > 100 | 4.57 | > 91.4 | – | > 91.6 | > 30.7 | > 80.5 | 14 | – | – | – | 36.3 | – | – | – | – | – | –
CC(C)(C)OC(=O)NC(Cc1ccccc1)NC(=O)NC(=O)OCc1ccccc1 (stereo unspecified) | > 100 | > 100 | > 100 | > 100 | > 100 | > 100 | > 100 | > 100 | – | – | – | – | > 100 | – | – | – | – | – | –
COc1cc(CC(C)NC(C)=O)cc(OC)c1 (stereo unspecified) | > 100 | – | > 100 | > 100 | > 100 | > 100 | > 100 | > 100 | > 100 | – | – | – | > 100 | – | – | – | – | – | –
O=C(CCc1cc(O)cc(O)c1)NCCCNC(=O)CCc1cc(O)cc(O)c1 | > 100 | > 100 | > 100 | > 100 | > 100 | > 100 | > 100 | > 100 | – | – | – | – | > 100 | – | – | – | – | – | –
CS(=O)(=O)Nc1ccc2c(c1)N(S(C)(=O)=O)CC2CCl (stereo unspecified) | – | > 100 | > 100 | > 100 | > 100 | > 100 | > 100 | > 100 | > 100 | – | – | – | > 100 | – | – | – | – | – | –
C/C=C(/C)C(=O)OC1CC(C)[C@H]2CC(=O)C(C)=C2CC1C(C)(C)OC(C)=O (stereo partly specified) | – | > 100 | > 100 | 51.6 | > 100 | > 100 | > 100 | > 100 | 49.8 | – | – | – | > 100 | – | – | – | – | – | –
NC(=O)c1csc(C2(O)COC(CO)C2O)n1 (stereo unspecified) | > 100 | > 100 | > 100 | > 100 | – | > 100 | > 100 | > 100 | – | – | – | – | > 100 | – | – | – | – | – | –
O=C1C=CC(=O)N1n1c(-c2ccccc2)n[nH]c1=O | > 100 | > 100 | > 100 | > 100 | > 100 | – | > 100 | > 100 | > 100 | – | – | – | > 100 | – | – | – | – | – | –
